EC50 data for 24 compounds are collected here from patent publication US11795173B1, “Substituted pyridines as PARP1 inhibitors” (Xinthera, Inc., priority 2022, dated 2023).

SMILES strings stand for the structures.

Assay [1] deals with MDA-MB-436 (mutated BRCA1) cells. The assay is described as follows: Cell growth inhibition assay (CellTiter-Glo), MDA-MB-436. The class given is cell-based. To be noted: Homo sapiens, MDA-MB-436, 168 h; cell viability, CellTiter Glo 2.0, 7 days. The source says:
The objective of this study is to evaluate the effect of compound disclosed herein on cell proliferation through the cell viability assay in DLD-1 BRCA2(−/−) and parental isogenic pair and MDA-MB-436 (mutated BRCA1) cell lines. The CellTiter-Glo (CTG) based cell viability assay is designed to determine the number of viable cells in the culture because of compound effect, by quantifying ATP, which indicates the presence of metabolically active cells.
(§1) DLD-1 BRCA2(−/−) and parental isogenic pair were cultured in RPMI 1640 supplemented with 10% fetal bovine serum (FBS), and MDA-MB-436 cells were cultured in DMEM supplemented with 10% FBS. Both are culture at 37° C. with 5% CO2. Invention compounds were distributed to the 384 well plate (Corning, 3764) using Echo acoustic liquid handler to form a 1:3 serially diluted final concentration with top dose of 10 or 30 μM. The cells were seeded into the plate in the density of 50 cells/well (DLD-1 parental), 200 cells/well (DLD-1 BRCA2−/−), or 500 cells/well (MDA-MB-436). After a short spun, the cells were cultured in a well moisturized incubator at 37° C. with 5% CO2 for 7 days without disturbance. The cell viability was measured by CellTiter Glo 2.0 assay kit (Promega, G9243), and growth inhibition rate was calculated and plotted against final compound concentration, and the data were fitted in Xfit to generate IC50.
For orientation: ATP-based viability assays read luminescence as a measure of living cells.

The subject of the next assay is DLD-1 BRCA2(−/−) cells. The assay is described as follows: Cell growth inhibition assay (CellTiter-Glo), DLD-1 BRCA2(−/−). The class given is cell-based. The conditions noted are these: Homo sapiens, DLD-1, 168 h; cell viability, CellTiter Glo 2.0, 7 days. How it is done:
The objective of this study is to evaluate the effect of compound disclosed herein on cell proliferation through the cell viability assay in DLD-1 BRCA2(−/−) and parental isogenic pair and MDA-MB-436 (mutated BRCA1) cell lines.
as §1, with “Invention compounds were distributed to the 384 well plate (Corning, 3764) using Echo acoustic liquid handler to form a 1:3 serially diluted final concentration with top dose of 10 or 30 μM.” left out

In the case of `CNC(=O)c1ccc(N2CCN(Cc3ccc4c([nH]c(=O)c5cc(F)nn54)c3F)CC2)c(F)n1` [Example 25, 5-[4-({2,6-difluoro-4-oxo-5H-pyrazolo[1,5-a]quinoxalin-7-yl}methyl)piperazin-1-yl]-6-fluoro-N-methylpyridine-2-carboxamide], the EC50 (as a rule, the concentration at which the effect is half-maximal) in assay [1] came to 1.4 nM; in the assay with DLD-1 BRCA2(−/−) cells, 1.8 nM.

Regarding `CNC(=O)c1ccc(N2CCN(Cc3ccc4c([nH]c(=O)n5cccc45)c3F)CC2)c(F)n1` [Example 7, 6-fluoro-5-[4-({7-fluoro-5-oxo-6H-pyrrolo[1,2-c]quinazolin-8-yl}methyl)piperazin-1-yl]-N-methylpyridine-2-carboxamide], the results for the EC50 (in assay [1]; with DLD-1 BRCA2(−/−) cells) were 1.3 nM and 2.1 nM, respectively.

`O=C(NC1CC1)c1ccc(N2CCN(Cc3ccc4c5c(c(=O)[nH]c4c3F)CCO5)CC2)c(F)n1` [Example 16]: the EC50 in assay [1] is 3.1 nM; in the assay with DLD-1 BRCA2(−/−) cells, 5.1 nM.

As to `CNC(=O)c1ccc(N2CCN(Cc3ccc4c([nH]c(=O)c5c(Cl)cnn54)c3F)CC2)c(F)n1` [Example 8], the figures for the EC50 (in assay [1]; in the assay with DLD-1 BRCA2(−/−) cells) were 0.94 nM and 1.8 nM, respectively.

As for `[2H]C1([2H])Cc2c(c3ccc(CN4CCN(c5ccc(C(=O)NC)nc5F)CC4)c(F)c3[nH]c2=O)O1` (single isomer, unassigned) [Example 31, 6-fluoro-5-(4-((6-fluoro-4-oxo-2,3,4,5-tetrahydrofuro[3,2-c]quinolin-7-yl-2,2-d2)methyl)piperazin-1-yl)-N-methylpicolinamide], the EC50 was 6.9 nM in assay [1] and 7.7 nM with DLD-1 BRCA2(−/−) cells.

Turning to `CNC(=O)c1ccc(N2CCN(Cc3ccc4c([nH]c(=O)c5c(C)cnn54)c3F)CC2)c(F)n1` [Example 23], the EC50 amounted to 2.7 nM in assay [1] and 4.7 nM in the assay on DLD-1 BRCA2(−/−) cells.

Turning to `O=C(NCC(F)F)c1ccc(N2CCN(Cc3ccc4c([nH]c(=O)c5ccnn54)c3F)CC2)c(F)n1` [Example 12], the EC50 in assay [1] turned out to be 0.9 nM; in the assay with DLD-1 BRCA2(−/−) cells it was 1.6 nM.

Regarding `CNC(=O)c1ccc(N2CCN(Cc3ccc4c([nH]c(=O)c5cnn(C)c54)c3F)CC2)c(F)n1` [Example 19, 6-fluoro-5-[4-({6-fluoro-1-methyl-4-oxo-5H-pyrazolo[4,3-c]quinolin-7-yl}methyl)piperazin-1-yl]-N-methylpyridine-2-carboxamide], the EC50 in assay [1] came to 31 nM; with DLD-1 BRCA2(−/−) cells it was 57 nM.

Turning to `CNC(=O)c1ccc(N2CCN(Cc3ccc4c([nH]c(=O)c5c(F)cnn54)c3F)CC2)c(F)n1` [Example 28, 5-[4-({3,6-difluoro-4-oxo-5H-pyrazolo[1,5-a]quinoxalin-7-yl}methyl)piperazin-1-yl]-6-fluoro-N-methylpyridine-2-carboxamide], the results for the EC50 (in assay [1]; with DLD-1 BRCA2(−/−) cells) were 0.57 nM and 0.84 nM, respectively.

In the case of `CNC(=O)c1ccc(N2CCN(Cc3ccc4c([nH]c(=O)c5ccoc54)c3F)CC2)c(F)n1` [Example 6, 6-fluoro-5-[4-({6-fluoro-4-oxo-5H-furo[3,2-c]quinolin-7-yl}methyl)piperazin-1-yl]-N-methylpyridine-2-carboxamide], the results for the EC50 (in assay [1]; with DLD-1 BRCA2(−/−) cells) were 2.1 nM and 3.8 nM, respectively.

On to `CNC(=O)c1ccc(N2CCN(Cc3ccc4c([nH]c(=O)c5cn(C)nc54)c3F)CC2)c(F)n1` [Example 20, 6-fluoro-5-[4-({6-fluoro-2-methyl-4-oxo-5H-pyrazolo[4,3-c]quinolin-7-yl}methyl)piperazin-1-yl]-N-methylpyridine-2-carboxamide], for which the figures for the EC50 (in assay [1]; in the assay on DLD-1 BRCA2(−/−) cells) were 4 nM and 6.2 nM, respectively.

With `CNC(=O)c1ccc(N2CCN(Cc3ccc4c([nH]c(=O)c5cccn54)c3F)CC2)c(F)n1` [Example 10, 6-fluoro-5-[4-({6-fluoro-4-oxo-5H-pyrrolo[1,2-a]quinoxalin-7-yl}methyl)piperazin-1-yl]-N-methylpyridine-2-carboxamide], the EC50 in assay [1] was determined as 0.3 nM; in the assay with DLD-1 BRCA2(−/−) cells it was 0.64 nM.

Regarding `COCCNC(=O)c1ccc(N2CCN(Cc3ccc4c([nH]c(=O)c5cc(C)nn54)c3F)CC2)c(F)n1` [Example 17], the EC50 in assay [1] is 1.3 nM; in the assay with DLD-1 BRCA2(−/−) cells it was 1.5 nM.

`CNC(=O)c1ccc(N2CCN(Cc3ccc4c5c(c(=O)[nH]c4c3F)CCO5)CC2)c(C)n1` [Example 29]: the EC50 in assay [1] amounted to 2.1 nM; in the assay with DLD-1 BRCA2(−/−) cells, 4.3 nM.

With `O=C(NCC(F)F)c1ccc(N2CCN(Cc3ccc4c([nH]c(=O)c5ccoc54)c3F)CC2)c(F)n1` [Example 11], the EC50 in assay [1] came to 0.86 nM; with DLD-1 BRCA2(−/−) cells, 1.1 nM.

`CNC(=O)c1ccc(N2CCN(Cc3ccc4c5c(c(=O)[nH]c4c3F)CCO5)CC2)cn1` [Example 26]: the results for the concentration giving a half-maximal response (EC50) (in assay [1]; in the assay on DLD-1 BRCA2(−/−) cells) were 6 nM and 7.5 nM, respectively.

Turning to `Cc1cc2c(=O)[nH]c3c(F)c(CN4CCN(c5ccc(C(=O)NCC(F)F)nc5F)CC4)ccc3n2n1` [Example 13], the results for the EC50 (in assay [1]; in the assay on DLD-1 BRCA2(−/−) cells) were 1.2 nM and 1.4 nM, respectively.

Turning to `CNC(=O)c1ccc(N2CCN(Cc3ccc4c([nH]c(=O)c5ccnn54)c3F)CC2)cn1` [Example 2], the half-maximal effective concentration (EC50) in assay [1] was 68 nM. This counts as double-digit nanomolar.

As to `[2H]C1([2H])COc2c1c(=O)[nH]c1c(F)c(CN3CCN(c4ccc(C(=O)NC)nc4F)CC3)ccc21` (single isomer, unassigned) [Example 32, 6-fluoro-5-(4-((6-fluoro-4-oxo-2,3,4,5-tetrahydrofuro[3,2-c]quinolin-7-yl-3,3-d2)methyl)piperazin-1-yl)-N-methylpicolinamide], the EC50 is 9.2 nM in assay [1] and 5.4 nM in the assay with DLD-1 BRCA2(−/−) cells.

Consider `CNC(=O)c1nc(C)c(N2CCN(Cc3ccc4c5c(c(=O)[nH]c4c3F)CCO5)CC2)cc1F` [Example 27], for which the EC50 in assay [1] came out at 14 nM; in the assay on DLD-1 BRCA2(−/−) cells, 21 nM.

Turning to `Cc1cc2c(=O)[nH]c3c(F)c(CN4CCN(c5ccc(C(=O)NC6COC6)nc5F)CC4)ccc3n2n1` [Example 21], the EC50 was determined as 0.66 nM in assay [1] and 1.3 nM in the assay with DLD-1 BRCA2(−/−) cells.

Regarding `O=C(NCC(F)F)c1ccc(N2CCN(Cc3ccc4c5c(c(=O)[nH]c4c3F)CCO5)CC2)c(F)n1` [Example 15], the figures for the EC50 (in assay [1]; in the assay on DLD-1 BRCA2(−/−) cells) were 0.75 nM and 1.9 nM, respectively.

On to `O=C(NC1CC1)c1ccc(N2CCN(Cc3ccc4c([nH]c(=O)c5ccoc54)c3F)CC2)c(F)n1` [Example 14], for which the EC50 in assay [1] was 0.68 nM; in the assay on DLD-1 BRCA2(−/−) cells, 1.2 nM.

Turning to `O=C(NC1CC1)c1ccc(N2CCN(Cc3ccc4c([nH]c(=O)c5ccnn54)c3F)CC2)c(F)n1` [Example 3], the concentration giving a half-maximal response (EC50) in assay [1] amounted to 4.3 nM; in the assay with DLD-1 BRCA2(−/−) cells it was 9.1 nM.
